In ChEMBL document CHEMBL1201862, “PubChem BioAssay data set” (2004):
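In this assay, cells in 96-well plates receive the compound at five concentrations for 48 hours. Endpoints are linearly interpolated between the surrounding concentrations. The concentration for 50% growth inhibition is given as GI50.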 Activity calls are given as the source filed them. Cut-off read from the data, not from the text of the source: active = GI50 up to about 1.1 µM and inactive = higher.

Tests used:
Test in all cases: DTP human tumour cell line panel, 48 h
786-0 = system: 786-0
A498 = system: A498
A549 = system: A549
ACHN = system: ACHN
CAKI-1 = system: CAKI-1
CCRF-CEM = system: CCRF-CEM
COLO 205 = system: COLO 205
DLD-1 = system: DLD-1
DMS-114 = system: DMS-114
DMS-273 = system: DMS-273
EKVX = system: EKVX
HCC 2998 = system: HCC 2998
HCT-116 = system: HCT-116
HCT-15 = system: HCT-15
HL-60 = system: HL-60
HOP-18 = system: HOP-18
HOP-62 = system: HOP-62
HOP-92 = system: HOP-92
HT-29 = system: HT-29
IGROV-1 = system: IGROV-1
K562 = system: K562
KM-20L2 = system: KM-20L2
KM12 = system: KM12
LOX IMVI = system: LOX IMVI
LXFL 529 = system: LXFL 529
M14 = system: M14
M19-MEL = system: M19-MEL
MOLT-4 = system: MOLT-4
Malme-3M = system: Malme-3M
NCI-H226 = system: NCI-H226
NCI-H23 = system: NCI-H23
NCI-H460 = system: NCI-H460
NCI-H522 = system: NCI-H522
OVCAR-3 = system: OVCAR-3
OVCAR-4 = system: OVCAR-4
OVCAR-5 = system: OVCAR-5
OVCAR-8 = system: OVCAR-8
RPMI-8226 = system: RPMI-8226
RXF 393 = system: RXF 393
RXF 631 = system: RXF 631
SF-268 = system: SF-268
SF-295 = system: SF-295
SF-539 = system: SF-539
SK-MEL-28 = system: SK-MEL-28
SK-MEL-2 = system: SK-MEL-2
SK-MEL-5 = system: SK-MEL-5
SK-OV-3 = system: SK-OV-3
SN12C = system: SN12C
SNB-75 = system: SNB-75
SNB-78 = system: SNB-78
SR = system: SR
SW-620 = system: SW-620
TK-10 = system: TK-10
U-251 = system: U-251
UACC-257 = system: UACC-257
UACC-62 = system: UACC-62
UO-31 = system: UO-31
XF498 = system: XF498
SNB-19 = system: SNB-19

Measured: GI50

CN(C)CC1CCCC/C1=N\OC(=O)c1ccccc1 (configuration not stated)
inactive: 786-0 > 100 µM | A498 > 100 µM | A549 > 100 µM | ACHN > 100 µM | CAKI-1 > 100 µM | CCRF-CEM > 100 µM | COLO 205 > 100 µM | DLD-1 > 100 µM | DMS-114 > 100 µM | DMS-273 > 100 µM | EKVX > 100 µM | HCC 2998 > 100 µM | HCT-116 > 100 µM | HL-60 > 100 µM | HOP-18 > 100 µM | HOP-62 > 100 µM | HOP-92 > 100 µM | HT-29 > 100 µM | IGROV-1 > 100 µM | K562 > 100 µM | KM-20L2 > 100 µM | KM12 > 100 µM | LOX IMVI > 100 µM | LXFL 529 > 100 µM | M14 > 100 µM | M19-MEL > 100 µM | MOLT-4 > 100 µM | Malme-3M > 100 µM | NCI-H226 > 100 µM | NCI-H23 > 100 µM | NCI-H460 > 100 µM | NCI-H522 > 100 µM | OVCAR-3 > 100 µM | OVCAR-4 > 100 µM | OVCAR-5 > 100 µM | OVCAR-8 > 100 µM | RPMI-8226 > 100 µM | RXF 393 > 100 µM | RXF 631 > 100 µM | SF-268 > 100 µM | SF-295 > 100 µM | SF-539 > 100 µM | SK-MEL-28 > 100 µM | SK-MEL-2 > 100 µM | SK-MEL-5 > 100 µM | SK-OV-3 > 100 µM | SN12C > 100 µM | SNB-75 > 100 µM | SNB-78 > 100 µM | SR > 100 µM | SW-620 > 100 µM | TK-10 > 100 µM | U-251 > 100 µM | UACC-257 > 100 µM | UACC-62 > 100 µM | UO-31 > 100 µM | XF498 > 100 µM
> 100 µM: HCT-15

C=CCNC(=O)N(CCC)CCCC(NC(C)=O)C(=O)NCc1ccccc1 (configuration not stated)
inactive: 786-0 > 100 µM | A498 > 100 µM | A549 > 100 µM | ACHN > 100 µM | CAKI-1 > 100 µM | CCRF-CEM > 100 µM | COLO 205 > 100 µM | DMS-114 > 100 µM | DMS-273 > 100 µM | EKVX > 100 µM | HL-60 > 100 µM | HOP-18 16.3 µM | HOP-62 > 100 µM | HOP-92 > 100 µM | HT-29 > 100 µM | IGROV-1 > 100 µM | K562 > 100 µM | KM-20L2 > 100 µM | KM12 > 100 µM | LOX IMVI > 100 µM | LXFL 529 > 100 µM | M14 > 100 µM | M19-MEL > 100 µM | MOLT-4 > 100 µM | Malme-3M > 100 µM | NCI-H226 79.1 µM | NCI-H23 > 100 µM | NCI-H460 > 100 µM | NCI-H522 > 100 µM | OVCAR-3 > 100 µM | OVCAR-4 > 100 µM | OVCAR-5 > 100 µM | OVCAR-8 > 100 µM | RPMI-8226 > 100 µM | RXF 393 > 100 µM | RXF 631 > 100 µM | SF-268 > 100 µM | SF-295 > 100 µM | SF-539 > 100 µM | SK-MEL-28 > 100 µM | SK-MEL-2 > 100 µM | SK-MEL-5 > 100 µM | SK-OV-3 > 100 µM | SN12C > 100 µM | SNB-19 > 100 µM | SNB-75 > 100 µM | SW-620 > 100 µM | TK-10 > 100 µM | U-251 > 100 µM | UACC-257 > 100 µM | UACC-62 > 100 µM | UO-31 > 100 µM | XF498 > 100 µM
> 100 µM: HCT-15
